We go through three molecules from PMC9281569, “Two HCN4 Channels Play Functional Roles in the Zebrafish Heart” (Frontiers in Physiology, 2022).

“And” between values parts separate entries of the source, which are not always exact repeats. Equal values may be shown once. Where a name gives a salt, the structure may show the parent alone. Read-outs that look alike come from different tables or passages of the source.

Data set [1] addresses T1, DrHCN4L (Danio rerio, UniProt A0A8N7TEJ3).
T1 sequence (A0A8N7TEJ3 1-1188): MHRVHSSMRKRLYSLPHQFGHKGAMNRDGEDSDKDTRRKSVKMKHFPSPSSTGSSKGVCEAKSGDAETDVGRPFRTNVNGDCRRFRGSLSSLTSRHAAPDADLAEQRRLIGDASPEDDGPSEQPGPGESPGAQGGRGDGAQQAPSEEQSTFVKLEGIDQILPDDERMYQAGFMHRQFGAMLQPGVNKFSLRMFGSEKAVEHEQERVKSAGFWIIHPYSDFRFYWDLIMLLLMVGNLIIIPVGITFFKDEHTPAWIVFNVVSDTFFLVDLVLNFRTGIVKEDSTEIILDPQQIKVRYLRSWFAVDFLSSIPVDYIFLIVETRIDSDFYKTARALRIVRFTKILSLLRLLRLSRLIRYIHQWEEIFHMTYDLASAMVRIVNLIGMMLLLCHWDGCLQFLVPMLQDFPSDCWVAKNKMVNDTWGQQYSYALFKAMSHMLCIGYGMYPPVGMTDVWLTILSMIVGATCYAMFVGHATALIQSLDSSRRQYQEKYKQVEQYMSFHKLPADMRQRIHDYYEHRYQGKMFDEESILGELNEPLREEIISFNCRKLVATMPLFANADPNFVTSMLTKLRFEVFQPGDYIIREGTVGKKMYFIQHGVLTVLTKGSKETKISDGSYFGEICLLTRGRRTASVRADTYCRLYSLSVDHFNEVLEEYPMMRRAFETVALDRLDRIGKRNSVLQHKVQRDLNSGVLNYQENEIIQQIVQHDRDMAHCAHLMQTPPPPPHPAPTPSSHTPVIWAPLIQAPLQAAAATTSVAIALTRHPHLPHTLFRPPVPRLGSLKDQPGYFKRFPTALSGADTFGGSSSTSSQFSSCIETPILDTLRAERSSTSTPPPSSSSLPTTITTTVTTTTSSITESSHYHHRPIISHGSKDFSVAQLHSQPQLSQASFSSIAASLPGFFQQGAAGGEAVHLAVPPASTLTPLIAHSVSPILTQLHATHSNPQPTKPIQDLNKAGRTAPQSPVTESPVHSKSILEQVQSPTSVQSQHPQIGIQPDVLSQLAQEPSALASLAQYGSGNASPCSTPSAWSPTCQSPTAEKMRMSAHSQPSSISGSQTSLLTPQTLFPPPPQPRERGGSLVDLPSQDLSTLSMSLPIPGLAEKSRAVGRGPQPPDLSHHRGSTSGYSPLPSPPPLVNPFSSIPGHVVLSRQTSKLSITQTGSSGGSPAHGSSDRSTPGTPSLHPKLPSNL
As to the kind of experiment: Inhibition of HCN4 currents in Xenopus oocytes, two-electrode voltage clamp. The format is cell-based, zebrafish (Danio rerio). The note with it: holding −30 mV, hyperpolarized to −120 mV for 2 s, room temperature. (Two-electrode voltage clamp holds a large cell at a set potential and records current.)

The subject of data set [2] is developing zebrafish embryos. As to the kind of experiment: HCN inhibitors in egg water: heart rate of developing zebrafish embryos. To be noted: for Effect on heart rate, concentration dependence: 10 μM, 100 μM, 24 h and 48 h; for Effect on heart rate, concentration dependence / Heart rate recovery after washout: 1 mM; for Heart rate recovery after washout: 6 h after washout; for Pericardial edema in inhibitor-treated zebrafish: zebrafish embryos treated with inhibitor.

In data set [3] the target is T2, DrHCN4 (Danio rerio, UniProt A0A8N7UQR8).
T2 sequence (A0A8N7UQR8 1-1140): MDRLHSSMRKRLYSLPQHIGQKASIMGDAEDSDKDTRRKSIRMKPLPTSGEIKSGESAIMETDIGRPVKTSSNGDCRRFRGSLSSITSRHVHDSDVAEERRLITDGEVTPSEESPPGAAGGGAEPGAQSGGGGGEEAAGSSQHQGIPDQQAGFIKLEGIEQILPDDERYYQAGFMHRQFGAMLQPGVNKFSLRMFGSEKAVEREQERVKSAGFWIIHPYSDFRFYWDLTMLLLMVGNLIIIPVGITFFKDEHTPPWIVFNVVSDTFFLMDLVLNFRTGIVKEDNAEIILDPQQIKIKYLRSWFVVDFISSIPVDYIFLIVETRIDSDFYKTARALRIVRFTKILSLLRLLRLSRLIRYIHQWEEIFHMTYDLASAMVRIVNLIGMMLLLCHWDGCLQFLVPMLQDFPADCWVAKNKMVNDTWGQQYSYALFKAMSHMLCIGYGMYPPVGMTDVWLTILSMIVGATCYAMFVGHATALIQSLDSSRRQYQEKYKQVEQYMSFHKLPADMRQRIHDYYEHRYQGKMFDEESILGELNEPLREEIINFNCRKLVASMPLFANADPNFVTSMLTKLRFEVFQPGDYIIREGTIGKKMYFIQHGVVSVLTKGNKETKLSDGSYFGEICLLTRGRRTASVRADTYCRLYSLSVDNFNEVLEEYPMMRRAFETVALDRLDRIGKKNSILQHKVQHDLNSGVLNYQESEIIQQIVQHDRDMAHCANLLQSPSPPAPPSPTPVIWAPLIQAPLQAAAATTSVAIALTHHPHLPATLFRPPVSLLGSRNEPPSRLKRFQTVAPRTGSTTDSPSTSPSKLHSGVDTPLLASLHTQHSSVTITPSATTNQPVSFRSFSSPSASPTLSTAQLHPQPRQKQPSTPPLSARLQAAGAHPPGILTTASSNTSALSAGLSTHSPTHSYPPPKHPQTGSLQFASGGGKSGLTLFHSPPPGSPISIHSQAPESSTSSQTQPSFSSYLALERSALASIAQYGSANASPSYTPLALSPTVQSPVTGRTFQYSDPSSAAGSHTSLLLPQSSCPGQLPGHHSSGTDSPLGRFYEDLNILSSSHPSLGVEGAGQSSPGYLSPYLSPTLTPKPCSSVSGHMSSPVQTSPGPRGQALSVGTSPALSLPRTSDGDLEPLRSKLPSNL
As to the kind of experiment: Inhibition of HCN4 currents in Xenopus oocytes, two-electrode voltage clamp. The note with it: holding −30 mV, hyperpolarized to −120 mV for 2 s, room temperature. Format: cell-based, zebrafish (Danio rerio).

The mark [4] stands for this setting: DrHCN4L in Xenopus oocytes, read-out: IC50.
The mark [5] stands for this setting: 0 h (24 hpf), before application of inhibitor, 10 μM group.
Where [6] appears, read: 0 h (24 hpf), before application of inhibitor, 100 μM group.
[7] abbreviates: 0 h (24 hpf), before application of inhibitor, 1 mM group.
The mark [8] stands for this setting: 24 h after application, 10 μM in egg water.
Setting [9] is: 24 h after application, 100 μM in egg water.
The mark [10] stands for this setting: 24 h after application, 1 mM in egg water.
Where [11] appears, read: 48 h after application, 10 μM in egg water.
[12] abbreviates: 48 h after application, 100 μM in egg water.
[13] abbreviates: 48 h after application, 1 mM in egg water.
[14] abbreviates: Washout, 6 h in inhibitor-free water after 48 h, 10 μM group.
Setting [15] is: Washout, 6 h in inhibitor-free water after 48 h, 100 μM group.
[16] abbreviates: Washout, 6 h in inhibitor-free water after 48 h, 1 mM group.
The mark [17] stands for this setting: DrHCN4 in Xenopus oocytes, read-out: IC50.

As to `CCN(c1ccccc1)c1cc(=NC)n(C)c(C)n1.Cl` [ZD7288], the IC50 – broadly, the concentration that gives 50% inhibition – in data set [1] (setting [4]) worked out at 596 ± 383 µM; in data set [3] (setting [17]) it was 699 ± 216 µM. Besides, the Heart rate in data set [2] (setting [5]) was found to be 81 ± 4 bpm; in data set [2] (setting [6]), 80 ± 3 bpm; in data set [2] (setting [7]), 84 ± 3 bpm; in data set [2] (setting [8]), 150 ± 3 bpm; in data set [2] (setting [9]) it was 129 ± 1 bpm; in data set [2] (setting [10]), 113 ± 3 bpm. Besides, the Heart rate came to 142 ± 2 bpm in data set [2] (setting [11]); 97 ± 4 bpm in data set [2] (setting [12]); 94 ± 2 bpm in data set [2] (setting [13]); 160 ± 3 bpm in data set [2] (setting [14]); 140 ± 4 bpm in data set [2] (setting [15]); 115 ± 2 bpm in data set [2] (setting [16]). The “Effect on heart rate, concentration dependence” value in data set [2] is listed as “significantly lowered heart rate, except for a concentration of 10 μM at 24 h”. For the same molecule, the “Heart rate recovery after washout” value in data set [2] is recorded as “recovered”. Besides, the “Pericardial edema in inhibitor-treated zebrafish” value in data set [2] is “no pericardial edema was observed”.

In the case of `COc1cc2c(cc1OC)CC(=O)N(CCCN(C)C[C@H]1Cc3cc(OC)c(OC)cc31)CC2` [Ivabradine, ivabradine hydrochloride], the IC50 in data set [1] (IC50, DrHCN4L in Xenopus oocytes) is 10 µM and 10.4 µM; in data set [3] (IC50, DrHCN4 in Xenopus oocytes), 31 µM and 30.9 µM. Besides, the Heart rate in data set [2] (setting [5]) was 81 ± 3 bpm; in data set [2] (setting [6]) it was 81 ± 2 bpm; in data set [2] (setting [7]), 85 ± 2 bpm; in data set [2] (setting [8]), 134 ± 4 bpm; in data set [2] (setting [9]), 124 ± 5 bpm; in data set [2] (setting [10]), 98 ± 2 bpm. Besides, the Heart rate in data set [2] (setting [11]) is given as 133 ± 2 bpm; in data set [2] (setting [12]), 101 ± 2 bpm; in data set [2] (setting [13]), 72 ± 2 bpm; in data set [2] (setting [14]), 149 ± 3 bpm; in data set [2] (setting [15]), 133 ± 3 bpm; in data set [2] (setting [16]), 115 ± 3 bpm. Moreover, the “Effect on heart rate, concentration dependence” value in data set [2] is “significantly suppressed heart rate at all concentrations and time points”. In addition, in data set [2], the “Heart rate recovery after washout” value is on record as “recovered”. Besides, in data set [2], the “Pericardial edema in inhibitor-treated zebrafish” value is reported as “no pericardial edema was observed”.

On to `[Cl-].[Cs+]` [Cesium ion, Cesium chloride], for which the IC50 in data set [1] (DrHCN4L in Xenopus oocytes, listed as Cs^+, read-out: IC50) came to 48 ± 7 µM; in data set [1] (setting [4]) it was 48.3 ± 6.9 µM; in data set [3] (DrHCN4 in Xenopus oocytes, listed as Cs^+, read-out: IC50) it was 44 ± 11 µM; in data set [3] (setting [17]), 44.3 ± 11.2 µM. Moreover, the Heart rate came out at 89 ± 1 bpm in data set [2] (setting [7]), 131 ± 2 bpm in data set [2] (setting [10]), 133 ± 2 bpm in data set [2] (setting [13]) and 139 ± 3 bpm in data set [2] (setting [16]).
